“Also recorded” adds a separate entry of the source. Non-standard residues stand in square brackets, D forms with d. Residues, ends and D or L forms follow the SMILES beside them. No end group written: not given here. pGlu = O=C1CC[C@@H](C(=O)O)N1
What was measured:
[1] = Surface charge of nanoparticles; format: physicochemical
Description: The magnetic nanoparticle preferably comprises primarily Fe3O4, rather than the Fe2O3 that has been used for most prior magnetic nanoparticles. The Fe3O4 particle surface contains amine groups that initially prevent agglomeration, eliminating the need for a coating such as a dextran or other intermediate coatings such as have been used in most prior magnetic nanoparticles. […] The only “coating” that need be used is the targeting agent itself, one with specificity for the target cells (or a combination of targeting agent and toxin or drug). The targeting agent, and the optional toxin or drug are covalently linked to the nanoparticle via amide linkages formed by reaction with the amine groups on the particles. The targeting agent may, for example, be a hormone, ligand, or antibody, or a fragment thereof to assist in selectively directing the particles to the cells of interest and facilitating their intracellular up-take and accumulation. The optional toxin or drug may, for example, be a lytic peptide, other peptide toxin, or other toxin or drug. Our studies have shown that reducing the amount of ligand/coating on the nanoparticles increases macrophage recognition and incorporation. By optionally distancing the ligand from the nanoparticle surface through a spacer molecule, ligand specificity may be retained while increasing cellular uptake. […]

[2] = tested on: MDA-MB-435S.luc xenograft-bearing mouse; conditions: 250 mg/kg tail vein, 20 hours, 6 mice per group
Experimental: The mice were euthanized 20 hours after the injections; and their tumors, lungs, liver, heart, kidney, pancreas, spleen, and gonads were collected. Portions of the organs and tumors were embedded in paraffin and tested for iron using Prussian blue staining.

[3] = tested on: MDA-MB-435S.luc xenograft-bearing mouse; assay: Iron content of tissue homogenates, tumor and kidney (Example 9); format: in vivo; conditions: 250 mg/kg tail vein, 20 hours
Experimental: Portions of the tissue samples from Example 8 were homogenized, and iron content was determined in calorimetric assays. The amounts of accumulated iron per gram total organ mass could thus be determined. […] When nanoparticles alone were injected, the iron content in tumors was only about 4%.

[4] = tested on: breast cancer cells MDA-MB-435S; assay: In vitro uptake of ligand-conjugated SPIONs (Example 10); format: cell-based, human; conditions: MDA-MB-435S cells, no free ligand
Experimental: (§1) LHRH−SPIONs and βCG/LH-SPIONs were tested on breast cancer cells MDA-MB-435S, on Chinese Hamster Ovary cells, on rat LH-receptor-transfected Chinese Hamster Ovary cells, and on mouse Sertoli cells. Experiments were conducted in the presence of LHRH, βCG, or neither. […] In addition, we observed that co-incubation with the free peptide ligands blocked the receptors that otherwise enabled the ligand-conjugated SPIONs to enter cells through receptor-mediated endocytosis. The uptake was then primarily via phagocytosis or pinocytosis at a low rate, similar to that for unconjugated SPIONs. The observed uptake was specific; the quantity of iron nanoparticles within the cells was substantially higher for receptor-mediated uptake.

[5] = tested on: Chinese Hamster Ovary cells; mouse Sertoli cells; assay: In vitro uptake in cell lines that do not express the appropriate receptors; format: cell-based; conditions: listed as LHRH−SPIONs
Experimental: as §1

[6] = tested on: female nude mice with human breast MDA-MB-435S.luc xenograft; conditions: mouse, in vivo
Experimental: (§2) Targeting Human Breast Cancer Xenograft and their Metastases with LHRH−SPIONs in vivo. To evaluate the distribution of LHRH−SPIONs and unconjugated SPIONs in vivo, female nude mice with human breast MDA-MB-435S.luc xenograft as described above were injected intravenously with 250 mg/kg LHRH-SPIONs or with unconjugated SPIONs, 35 days after tumor inoculation. The mice were sacrificed 20 h after injection, and the organs and tumors were collected, weighed and analyzed for iron and luciferase. Portions of the organs and tumors were homogenized and their iron content determined spectrophotometrically after reaction with Prussian blue, while other portions were analyzed after fixation by transmission electron microscopy.
The design of this cancer model was such that all tumor cells expressed luciferase, meaning that the presence of luciferase was inherently synonymous with the presence of cancer cells. By contrast, the presence of iron was not inherently synonymous with the presence of cancer cells. The goal of this experiment was to test the efficacy of the novel system at specifically delivering iron to cancer cells.
(§3) Statistical analyses were conducted on raw data by ANOVA. We obtained the ranks of the data, and then conducted a Kruskal-Wallis test. Differences were considered significant at the P<0.05 level. Rank data and variance stabilizing transformations were included.

[7] = tested on: tumor-free mice; conditions: mouse, in vivo, iv
Experimental: as §2, §3

[8] = tested on: mice bearing the MDA-MB-435S.luc tumors; conditions: after sequential injections
Description: See FIGS. 3(a) through (d), showing photographs of Prussian Blue-stained sections from lungs of mice bearing the MDA-MB-435S.luc tumors. FIG. 3(a) depicts a saline-injected control. FIG. 3(b) depicts injection with unconjugated SPIONs. FIGS. 3 (c) and (d) depict injection with conjugated LHRH−SPIONs.

[9] = tested on: human macrophages; assay: In vitro macrophage uptake of nanoparticles (Example 26); format: cell-based; conditions: iron concentration of 20 μg/mL
[10] = tested on: MDA-MB-435S.luc breast cancer cells; assay: Effect of spacer molecule on cellular iron uptake (Example 27); format: cell-based, human; conditions: iron incubation 1 mg/ml, 3 hours; for iron accumulation in the breast cancer cells in the presence of LHRH: free LHRH present
Experimental: The effect of a spacer molecule on cellular uptake was tested in vitro on MDA-MB-435S.luc breast cancer cells, which express LHRH receptors. Iron incubation was conducted at 1 mg/ml for different conditions for 3 hours. Accumulation in the breast cancer cells was 82.3±25 pg/cell for SPIONs, 165±16 pg/cell for LHRH−SPIONs, and 223±16 pg/cell with LHRH-Glu-SPION. […] These observations support our hypothesis that iron uptake was driven by receptor-mediated endocytosis.

[11] = tested on: MCF-7, MDA-MB-435S.luc and TM4 cell lines; assay: In vitro toxicity of constructs on three cell lines, cell line not given; format: cell-based; conditions: FIG. 4
Description: FIG. 4 depicts toxicity measurements of different constructs on three cell lines.
Pancreatic, prostate, breast, and lung cancers may be targeted by LHRH, linked to a toxin or drug such as a lytic peptide and to a SPION. In one study we tested the use of LHRH−SPIONs conjugated to a toxin or drug for both treatment and imaging of tumors and metastases. A particle with a ligand and a toxin (drug) may be made in at least three different configurations: ligand-toxin(drug)-SPION, ligand-SPION-toxin(drug), or toxin(drug)-ligand-SPION. […] (The potential construct SPION-LHRH-Hecate was not tested in these experiments.) See FIG. 4. […] Based on the results reported above, the introduction of a spacer is expected to improve ligand-receptor interaction; and, in the case of a lytic peptide, to improve the peptide-membrane interaction. The spacer may also improve plasma stability of the particles.

[12] = tested on: MDA-MB-435S.luc tumor bearing mice; assay: Treatment of tumor-xenografted mice (Example 29); format: in vivo, mouse; conditions: for tumor weights at necropsy: tail vein injections at 3, 4 and 5 weeks post-xenograft, 28 days after the start of treatment
Description: Mice were sacrificed and necropsied 6 weeks post-xenografts. […] Bodyweights, liver weights, and gonadal weights remained stable during all treatments. The breast cancer tumors and metastases were specifically targeted and destroyed by LHRH-conjugated SPIONs carrying a toxin (hecate). The same particles may be used for simultaneous treatment and imaging, e.g., for directly monitoring treatment response in cancer patients.

[13] = tested on: tumor-xenograft-bearing mice; conditions: 2, 10, 30 and 60 days after injection
Experimental: Pharmacokinetics of iron nanoparticles. To determine the pharmacokinetic profile of SPIONs and their conjugates, 4 groups of tumor-xenograft-bearing mice (n=10) are injected with the various concentrations of conjugated SPIONs as determined above. A fifth group serves as saline control. The mice are housed for 2, 10, 30, and 60 days after injection, and are then sacrificed to determine iron content in peripheral tissues. This experiment uses 50 female nude mice, and will establish the excretion profile of LHRH−SPIONs over a period of 60 days.

[14] = tested on: male nude mice bearing tumors from human prostate cancer line PC-3.luc; conditions: mouse, in vivo
Description: This experiment employed male nude mice bearing tumors from human prostate cancer line PC-3.luc (with luciferase reporter).

[15] = tested on: rats; conditions: rat, in vivo, iv, 250 mg/kg; cited from earlier work

## LHRH−SPION: Fe3O4 magnetite nanoparticles covalently bound to LHRH by carbodiimide reaction (Example 3)
[1]
  charge of nanoparticles (in words): almost neutral
[2]
  tumors testing positive for iron (Prussian blue staining): Four of six
[3]
  iron located in the tumor (estimate of iron content in tumor and kidney): up to 70%
[4]
  observed uptake: 452 pg Fe/cell
[5]
  ligand-mediated uptake in cell lines that did not express the appropriate receptors: did not bind and accumulate; also recorded: substantially lower
[6]
  fraction of injected particles accumulated in primary tumors and metastases: up to 60%
  relation of level accumulated in the lungs to metastatic load (luciferase activity): linear function of the metastatic load
[6]; iv, 250 mg/kg
  percentage of iron accumulating in kidney: 3.3%
  percentage of iron accumulating in lung: 22.2%
[7]
  percentage of iron accumulating in lung: 0.9%
[8]
  retention of nanoparticles inside the target cells: at least four weeks
[9]
  difference in macrophage uptake, SPIONs versus LHRH-SPIONs: thirteen-fold
  fraction taken up by macrophages: about 5%
[10]
  iron accumulation in the breast cancer cells: 165±16 pg/cell
  iron accumulation in the breast cancer cells in the presence of LHRH: 106±26 pg/cell
[11]
  toxicity: not toxic
[12]
  tumor weights at necropsy: 0.24 ± 0.09 g
[13]
  predicted depletion of iron from tumor and metastatic tissues: slower depletion
  predicted iron content in kidney, liver and spleen over time: decrease rather rapidly with time
[14]
  accumulation in tumor tissue compared to normal (kidney) tissue: preferentially accumulate in tumor tissue

## iron oxide nanoparticles
[15]
  adverse effects: no adverse effects

## CC(C)C[C@H](NC(=O)[C@H](C)NC(=O)[C@H](CCCCN)NC(=O)[C@H](CCCCN)NC(=O)[C@H](CC(C)C)NC(=O)[C@H](C)NC(=O)[C@H](CCCCN)NC(=O)[C@H](CCCCN)NC(=O)[C@H](CC(C)C)NC(=O)[C@H](CCCCN)NC(=O)[C@H](CCCCN)NC(=O)[C@H](CC(C)C)NC(=O)[C@H](C)NC(=O)[C@H](CCCCN)NC(=O)[C@H](CCCCN)NC(=O)[C@H](CC(C)C)NC(=O)[C@H](C)NC(=O)[C@H](CCCCN)NC(=O)[C@H](CC(C)C)NC(=O)[C@H](C)NC(=O)[C@H](CC(C)C)NC(=O)[C@H](C)NC(=O)[C@H](Cc1ccccc1)NC(=O)CNC(=O)[C@@H]1CCCN1C(=O)[C@H](CCCNC(=N)N)NC(=O)[C@H](CC(C)C)NC(=O)CNC(=O)[C@H](Cc1ccc(O)cc1)NC(=O)[C@H](CO)NC(=O)[C@H](Cc1c[nH]c2ccccc12)NC(=O)[C@H](Cc1c[nH]cn1)NC(=O)[C@@H]1CCC(=O)N1)C(=O)O [LHRH-Hecate] ([pGlu]HWSYGLRPGFALALKALKKALKKLKKALKKAL-OH; C-terminus assumed)
[12]; during and after treatment
  change of tumor volumes (and tumor weights): arrested at the start of treatment and then diminished significantly; also recorded: decreased
[12]; mouse, in vivo
  lymph node metastases, assayed by luciferase activity at necropsy: destroyed
[12]
  tumor weights at necropsy: 0.07 ± 0.04 g

## LHRH-Glu-SPION: LHRH bound to SPION through a glutaric acid spacer (Examples 5 and 7) (QHWSYGLRPG; ends and bridges not checked; also: bound to SPION through a glutaric acid spacer, site not given here; UniProt P01148 24-33, looked up)
[10]
  iron accumulation in the breast cancer cells: 223±16 pg/cell
  iron accumulation in the breast cancer cells in the presence of LHRH: 123±25 pg/cell

Reference: patent publication US20090169478A1, “In Vivo Imaging and Therapy with Magnetic Nanoparticle Conjugates” (priority 2005, published 2009)
